Reference: patent publication US20220047569A1, “METHOD AND COMPOUND FOR USE, IN TREATING AND/OR PREVENTING NETOSIS” (Jubilant EpiPad LLC, priority 2020, published 2022)

System: Histone H3 Citrullination in Neutrophils
Assay: Citrullination ELISA (Citrullinated Histone H3) in calcium ionophore stimulated neutrophils
Assay type: cell-based
Settings: Neutrophil; human neutrophils, 25 μM calcium ionophore, CitH3 ELISA
Protocol: Neutrophils were isolated according to the EasySep Direct Human Neutrophil Isolation Kit. In short, 50 mL of blood sample was drawn in a vacutainer containing K2EDTA from a healthy donor. To the whole blood, the isolation cocktail of 50 μL/mL was added. Then, in the next step 50 μL/mL of RapidSpheres™ was added to the sample. The sample was mixed evenly with the pipette and incubated for 10 minutes at room temperature. After incubation, PBS containing 1 mM EDTA was added at the ratio of 1:1 to the blood. Then the sample tube was incubated for 10 minutes. The enriched cell suspension was transferred into a new tube and RapidSpheres™ were added at 50 μL/mL to this suspension, mixed and incubated for 10 minutes at room temperature. At this step, the enriched cell suspension was carefully collected as a clear fraction into a fresh tube. Then, previous tube was replaced with the fresh tube containing enriched cell suspension. After the final separation, the clear solution of enriched cell suspension was carefully transferred to fresh tube which was ready to use for the experiment. These cells were then subjected to wash twice with plain RPMI 1640 media without Fetal Bovine Serum (FBS) and centrifuged at 1500 rpm for 5 minutes at room temperature. Cell counts were performed on each sample by Invitrogen cell counter. After the cell count, cell density was adjusted according to the experiment and re-suspended in complete RPMI media containing RPMI1640, 2% BSA and 1 mM CaCl2.
Freshly isolated neutrophils from human donor were seeded at a density of 0.5×10^6 cells in 400 μL cell suspension/well in a 24-well plate and cells were pre-incubated with the compound for 30 minutes by adding 50 μL of the 10× concentration to achieve the final 1× concentration of compound (10 μM, 1 μM and 0.1 μM). 1% DMSO was added in control wells. Then, the cells were stimulated in the presence and absence of calcium ionophore by adding 50 μL/well to achieve the final concentration of 25 μM. Upon incubation for 30 minutes with calcium ionophore, S7 nuclease was added to the wells and incubated for 10 minutes to disrupt NET DNA. Following incubation, 10 μL of 1 mM EDTA was added to inactivate nuclease. Cells were scrapped gently and transferred to the tubes, followed by centrifugation at 1500 rpm for 5 minutes. After centrifugation, supernatant was discarded, and 200 μL of lysis buffer containing PBS and 1× Protease inhibitor was added to the tubes. The obtained lysis was then subjected to mechanical shearing using Geno grinder by spin the plate at 2500 rpm for 10 minutes, followed by collection of supernatant and stored at −20° C. or immediately used for ELISA.
ELISA was performed as per Citrullinated Histone H3 ELISA Kit. All the buffer components from the kit were dissolved according to the manufactures protocol. ELISA Buffer Concentrate (10×) (Item No. 400060) and Wash Buffer Concentrate (400×) (Item No. 400060) along with polysorbate 20 (2000×) (Item No. 400035) was diluted to 1× with milliQ water. The standard for use in the ELISA was prepared as follows: • Obtain eight clean test tubes and label them, #1 through #8. Aliquot 4.9 mL of ELISA Buffer into tube #1. • Aliquot 500 μL of ELISA Buffer into the tubes #2-8. […] This tube is considered as blank, the lowest point on the standard curve.
100 μL of standards or diluted sample was added to the appropriate wells on the 96-well plate. Plates were covered with 96-well cover sheet and incubated for two hours at room temperature on an orbital shaker. The samples and standard were removed from the wells and washed four times with Wash Buffer. After the last wash, Anti-Histone H3 HRP Conjugate (Item No. 501441) (10×) stock solution was diluted in 1×ELISA buffer and 100 μL of the HRP Conjugate working solution was added to each well of the plate and incubated for one hour at room temperature on an orbital shaker. […]

IC50 | Structure (SMILES)
< 100 nM | COc1ccc(Cn2c(-c3nc4cc(C(=O)N5CCC[C@@H](N)C5)cc5c4n3CCO5)cc3cccc(Cl)c32)cc1 [Compound 125, (R)-(3-aminopiperidin-1-yl)(2-(7-chloro-1-(4-methoxybenzyl)-1H-indol-2-yl)-3,4-dihydro-5-oxa-1,2a-diazaacenaphthylen-7-yl)methanone]
< 100 nM | N[C@@H]1CCCN(C(=O)c2cc3c4c(c2)nc(-c2cc5cc(F)ccc5n2CC2CC2)n4CCO3)C1 [Compound 95, (R)-(3-aminopiperidin-1-yl)(2-(1-(cyclopropylmethyl)-5-fluoro-1H-indol-2-yl)-3,4-dihydro-5-oxa-1,2a-diazaacenaphthylen-7-yl)methanone]
> 1000 nM | COc1ccc(Cn2c(-c3nc4cc(C(=O)N5CCC[C@@H](N)C5)cc5c4n3CCO5)cc3cc(F)ccc32)cc1 [Compound 132, (R)-(3-aminopiperidin-1-yl)(2-(5-fluoro-1-(4-methoxybenzyl)-1H-indol-2-yl)-3,4-dihydro-5-oxa-1,2a-diazaacenaphthylen-7-yl)methanone]
< 100 nM | Cc1c(-c2cc3ccc(F)cc3n2Cc2ccc(F)cc2)nc2cc(C(=O)N3CCC[C@@H](N)C3)ccn12 [Compound 54, (R)-(3-aminopiperidin-1-yl)(2-(6-fluoro-1-(4-fluorobenzyl)-1H-indol-2-yl)-3-methylimidazo[1,2-a]pyridin-7-yl)methanone]
100 to 1000 nM | N[C@@H]1CCCN(C(=O)c2cc3c4c(c2)nc(-c2cc5ccccc5n2Cc2ccccn2)n4CCO3)C1 [Compound 97, (R)-(3-aminopiperidin-1-yl)(2-(1-(pyridin-2-ylmethyl)-1H-indol-2-yl)-3,4-dihydro-5-oxa-1,2a-diazaacenaphthylen-7-yl)methanone]
< 100 nM | Cc1c(-c2cc3ccccc3n2Cc2cccnc2)nc2cc(C(=O)N3CCC[C@@H](N)C3)ccn12 [Compound 15, (R)-(3-aminopiperidin-1-yl)(3-methyl-2-(1-(pyridin-3-ylmethyl)-1H-indol-2-yl)imidazo[1,2-a]pyridin-7-yl)methanone]
100 to 1000 nM | N[C@@H]1CCCN(C(=O)c2cc3c4c(c2)nc(-c2cc5ccccc5n2Cc2cnccn2)n4CCO3)C1 [Compound 111, (R)-(3-aminopiperidin-1-yl)(2-(1-(pyrazin-2-ylmethyl)-1H-indol-2-yl)-3,4-dihydro-5-oxa-1,2a-diazaacenaphthylen-7-yl)methanone]
< 100 nM | CN1CCn2c(-c3cc4cc(F)ccc4n3CC3CC3)nc3cc(C(=O)N4CCC[C@@H](N)C4)cc1c32 [Compound 161, (R)-(3-aminopiperidin-1-yl)(2-(1-(cyclopropylmethyl)-5-fluoro-1H-indol-2-yl)-6-methyl-5,6-dihydro-4H-imidazo[1,5,4-de]quinoxalin-8-yl)methanone]
> 1000 nM | N[C@@H]1CCCN(C(=O)c2cc3c4c(c2)nc(-c2cc5ccc(F)cc5n2Cc2ncccc2F)n4CCO3)C1 [Compound 121, (R)-(3-aminopiperidin-1-yl)(2-(6-fluoro-1-((3-fluoropyridin-2-yl)methyl)-1H-indol-2-yl)-3,4-dihydro-5-oxa-1,2a-diazaacenaphthylen-7-yl)methanone]
< 100 nM | CCn1c(-c2nc3cc(C(=O)N4CCC[C@@H](N)C4)ccn3c2C)cc2cc(F)ccc21 [Compound 39, (R)-(3-aminopiperidin-1-yl)(2-(1-ethyl-5-fluoro-1H-indol-2-yl)-3-methylimidazo[1,2-a]pyridin-7-yl)methanone]
< 100 nM | CCn1c(-c2nc3cc(C(=O)N4CCC[C@@H](N)C4)ccn3c2C)cc2ccccc21 [Compound 4, (R)-(3-aminopiperidin-1-yl)(2-(1-ethyl-1H-indol-2-yl)-3-methylimidazo[1,2-a]pyridin-7-yl)methanone]
> 1000 nM | CCn1c(-c2nc3cc(C(=O)N4CCC[C@@H](N)C4)ccn3c2C)cc2ccc(OC)cc21 [Compound 67, (R)-(3-aminopiperidin-1-yl)(2-(1-ethyl-6-methoxy-1H-indol-2-yl)-3-methylimidazo[1,2-a]pyridin-7-yl)methanone]
> 1000 nM | Cc1c(-c2cc3ccccc3n2Cc2ccc(F)cn2)nc2cc(C(=O)N3CCC[C@@H](N)C3)ccn12 [Compound 79, (R)-(3-aminopiperidin-1-yl)(2-(1-((5-fluoropyridin-2-yl)methyl)-1H-indol-2-yl)-3-methylimidazo[1,2-a]pyridin-7-yl)methanone]
100 to 1000 nM | COCCn1c(-c2nc3cc(C(=O)N4CCC[C@@H](N)C4)cc4c3n2CCO4)cc2cc(F)ccc21 [Compound 134, (R)-(3-aminopiperidin-1-yl)(2-(5-fluoro-1-(2-methoxyethyl)-1H-indol-2-yl)-3,4-dihydro-5-oxa-1,2a-diazaacenaphthylen-7-yl)methanone]
100 to 1000 nM | N[C@@H]1CCCN(C(=O)c2cc3c4c(c2)nc(-c2cc5c(F)cccc5n2CC2CC2)n4CCN3)C1 [Compound 166, (R)-(3-aminopiperidin-1-yl)(2-(1-(cyclopropylmethyl)-4-fluoro-1H-indol-2-yl)-5,6-dihydro-4H-imidazo[1,5,4-de]quinoxalin-8-yl)methanone]
100 to 1000 nM | N[C@@H]1CCCN(C(=O)c2cc3c4c(c2)nc(-c2cc5ccccc5n2CC2CC2)n4CCO3)C1 [Compound 87, (R)-(3-aminopiperidin-1-yl)(2-(1-(cyclopropylmethyl)-1H-indol-2-yl)-3,4-dihydro-5-oxa-1,2a-diazaacenaphthylen-7-yl)methanone]
100 to 1000 nM | Cc1csc(Cn2c(-c3nc4cc(C(=O)N5CCC[C@@H](N)C5)ccn4c3C)cc3ccccc32)n1 [Compound 41, (R)-(3-aminopiperidin-1-yl)(3-methyl-2-(1-((4-methylthiazol-2-yl)methyl)-1H-indol-2-yl)imidazo[1,2-a]pyridin-7-yl)methanone]
< 100 nM | N[C@@H]1CCCN(C(=O)c2cc3c4c(c2)nc(-c2cc5ccccc5n2Cc2cccnc2)n4CCO3)C1 [Compound 102, (R)-(3-aminopiperidin-1-yl)(2-(1-(pyridin-3-ylmethyl)-1H-indol-2-yl)-3,4-dihydro-5-oxa-1,2a-diazaacenaphthylen-7-yl)methanone]
< 100 nM | COc1cc2cc(-c3nc4cc(C(=O)N5CCC[C@@H](N)C5)cc5c4n3CCO5)n(CC3CC3)c2cc1OC [Compound 103, (R)-(3-aminopiperidin-1-yl)(2-(1-(cyclopropylmethyl)-5,6-dimethoxy-1H-indol-2-yl)-3,4-dihydro-5-oxa-1,2a-diazaacenaphthylen-7-yl)methanone]
100 to 1000 nM | N[C@@H]1CCCN(C(=O)c2cc3c4c(c2)nc(-c2cc5ccccc5n2CC2CCC2)n4CCO3)C1 [Compound 127, (R)-(3-aminopiperidin-1-yl)(2-(1-(cyclobutylmethyl)-1H-indol-2-yl)-3,4-dihydro-5-oxa-1,2a-diazaacenaphthylen-7-yl)methanone]
100 to 1000 nM | Cc1cccc2cc(-c3nc4cc(C(=O)N5CCC[C@@H](N)C5)cc5c4n3CCN5)n(CC3CC3)c12 [Compound 170, (R)-(3-aminopiperidin-1-yl)(2-(1-(cyclopropylmethyl)-7-methyl-1H-indol-2-yl)-5,6-dihydro-4H-imidazo[1,5,4-de]quinoxalin-8-yl)methanone]
100 to 1000 nM | N[C@@H]1CCCN(C(=O)c2cc3c4c(c2)nc(-c2cc5cc(F)ccc5n2CC2CC2)n4CCN3)C1 [Compound 150, (R)-(3-aminopiperidin-1-yl)(2-(1-(cyclopropylmethyl)-5-fluoro-1H-indol-2-yl)-5,6-dihydro-4H-imidazo[1,5,4-de]quinoxalin-8-yl)methanone]
